Measurements: PubChem BioAssay (NCI)
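These data come from cells grown in 96-well plates and exposed to compound for 48 hours at five concentrations. The concentration for full growth arrest is given as TGI.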

What was measured:
Assay in all cases: NCI anticancer screen, dose series, 48 h
[1] = tested on: SNB-19 CNS
[2] = tested on: A549 NSCLC
[3] = tested on: U251 CNS
[4] = tested on: OVCAR-5 ovarian
[5] = tested on: KM12 colon
[6] = tested on: DLD-1 colon
[7] = tested on: HOP-62 NSCLC
[8] = tested on: MOLT-4 leukemia
[9] = tested on: HT29 colon
[10] = tested on: NCI-H522 lung
[11] = tested on: SK-OV-3 ovarian
[12] = tested on: UO-31 renal
[13] = tested on: HCT-116 colon
[14] = tested on: DMS 114 small cell lung
[15] = tested on: SF-295 CNS
[16] = tested on: LXFL 529 NSCLC
[17] = tested on: MALME-3M melanoma
[18] = tested on: TK-10 renal
[19] = tested on: 786-0 renal
[20] = tested on: CCRF-CEM leukemia
[21] = tested on: A498 renal
[22] = tested on: CAKI-1 renal
[23] = tested on: UACC-62 melanoma
[24] = tested on: IGROV1 ovarian
[25] = tested on: SF-268 CNS
[26] = tested on: COLO 205 colon
[27] = tested on: OVCAR-3 ovarian
[28] = tested on: HCT-15 colon
[29] = tested on: SK-MEL-5 melanoma
[30] = tested on: M14 melanoma
[31] = tested on: SNB-78 CNS
[32] = tested on: NCI-H23 lung
[33] = tested on: SN12C renal
[34] = tested on: M19-MEL melanoma
[35] = tested on: K-562 leukemia
[36] = tested on: SK-MEL-28 melanoma
[37] = tested on: OVCAR-8 ovarian
[38] = tested on: SF-539 CNS
[39] = tested on: SNB-75 CNS
[40] = tested on: UACC-257 melanoma
[41] = tested on: SK-MEL-2 melanoma
[42] = tested on: DMS 273 small cell lung
[43] = tested on: HOP-18 NSCLC
[44] = tested on: NCI-H460 lung
[45] = tested on: RPMI-8226 leukemia
[46] = tested on: NCI-H226 lung
[47] = tested on: ACHN renal
[48] = tested on: OVCAR-4 ovarian
[49] = tested on: HCC-2998 colon
[50] = tested on: RXF 393 renal
[51] = tested on: KM20L2 colon
[52] = tested on: HL-60(TB) leukemia
[53] = tested on: LOX IMVI melanoma
[54] = tested on: SW-620 colon
[55] = tested on: HOP-92 NSCLC
[56] = tested on: EKVX NSCLC
[57] = tested on: SR leukemia

Measured: TGI

COc1cccc2c1C(=O)C1(O)CCCCC21 (configuration not stated)
> 100 µM: [1] | [2] | [3] | [4] | [5] | [6] | [7] | [8] | [9] | [10] | [11] | [12] | [13] | [14] | [15] | [16] | [17] | [18] | [19] | [20] | [21] | [22] | [23] | [24] | [25] | [26] | [27] | [28] | [29] | [30] | [31] | [32] | [33] | [34] | [35] | [36] | [37] | [38] | [39] | [40] | [41] | [42] | [43] | [44] | [45] | [46] | [47] | [48] | [49] | [50] | [51] | [52] | [53] | [54]

CCc1cccc(CC)c1NC(=O)C(=O)Cc1nc2ccccc2o1
> 100 µM: [1] | [2] | [3] | [4] | [5] | [6] | [7] | [8] | [9] | [10] | [11] | [12] | [13] | [14] | [15] | [16] | [55] | [17] | [18] | [19] | [20] | [21] | [22] | [23] | [24] | [25] | [26] | [27] | [28] | [30] | [31] | [32] | [33] | [34] | [35] | [56] | [36] | [37] | [38] | [40] | [57] | [41] | [43] | [44] | [45] | [46] | [47] | [48] | [49] | [50] | [51] | [52] | [53] | [54]

O=C(CSc1nnc(Cc2ccccc2)o1)Nc1ccc(Cl)cc1Cl
> 100 µM: [1] | [2] | [3] | [4] | [5] | [6] | [7] | [8] | [9] | [10] | [11] | [12] | [13] | [14] | [15] | [16] | [17] | [18] | [19] | [20] | [21] | [22] | [23] | [24] | [25] | [26] | [27] | [28] | [29] | [30] | [31] | [32] | [33] | [34] | [35] | [36] | [37] | [38] | [39] | [40] | [41] | [42] | [43] | [44] | [45] | [46] | [47] | [48] | [49] | [50] | [51] | [52] | [53] | [54]
